Measurements reported in the NIST ThermoML archive (doi:10.1016/j.jct.2004.07.027).

Assay: mn = molality of the nth substance listed, in mol/kg
Details: 350 kPa, Liquid, Extra sensitive DSC

C1COCCOCCOCCOCCOCCO1 [1,4,7,10,13,16-hexaoxacyclooctadecane] + O
Details	apparent molar heat capacity [J/K/mol]
278.15 K, m1 = 0.01001	748
278.15 K, m1 = 0.02001	740.4
278.15 K, m1 = 0.03002	741.5
278.15 K, m1 = 0.0401	742.3
278.15 K, m1 = 0.04995	746.2
278.15 K, m1 = 0.06015	746.9
278.15 K, m1 = 0.08002	744.3
278.15 K, m1 = 0.1224	740.8
278.15 K, m1 = 0.1472	738.5
278.15 K, m1 = 0.1935	734.51
278.15 K, m1 = 0.2925	725.83
283.15 K, m1 = 0.01001	768
283.15 K, m1 = 0.02001	764.2
283.15 K, m1 = 0.03002	764.8
283.15 K, m1 = 0.0401	765.6
283.15 K, m1 = 0.04995	769.1
283.15 K, m1 = 0.06015	769.3
283.15 K, m1 = 0.08002	767.2
283.15 K, m1 = 0.1224	764.3
283.15 K, m1 = 0.1472	762.46
283.15 K, m1 = 0.1935	759.11
283.15 K, m1 = 0.2925	751.64
288.15 K, m1 = 0.01001	788
288.15 K, m1 = 0.02001	782.4
288.15 K, m1 = 0.03002	783.2
288.15 K, m1 = 0.0401	785.4
288.15 K, m1 = 0.04995	788.8
288.15 K, m1 = 0.06015	788.7
288.15 K, m1 = 0.08002	786.6
288.15 K, m1 = 0.1224	784.29
288.15 K, m1 = 0.1472	782.67
288.15 K, m1 = 0.1935	779.7
288.15 K, m1 = 0.2925	773.51
293.15 K, m1 = 0.01001	805.9
293.15 K, m1 = 0.02001	800.2
293.15 K, m1 = 0.03002	800.8
293.15 K, m1 = 0.0401	803.3
293.15 K, m1 = 0.04995	806.1
293.15 K, m1 = 0.06015	806
293.15 K, m1 = 0.08002	804.3
293.15 K, m1 = 0.1224	802.22
293.15 K, m1 = 0.1472	800.93
293.15 K, m1 = 0.1935	798.36
293.15 K, m1 = 0.2925	793.29
298.15 K, m1 = 0.01001	820.2
298.15 K, m1 = 0.02001	817
298.15 K, m1 = 0.03002	817.3
298.15 K, m1 = 0.0401	820
298.15 K, m1 = 0.04995	822.2
298.15 K, m1 = 0.06015	822.4
298.15 K, m1 = 0.08002	820.7
298.15 K, m1 = 0.1224	819.28
298.15 K, m1 = 0.1472	818.39
298.15 K, m1 = 0.1935	816.04
298.15 K, m1 = 0.2925	811.91
303.15 K, m1 = 0.01001	836.9
303.15 K, m1 = 0.02001	832.9
303.15 K, m1 = 0.03002	833.1
303.15 K, m1 = 0.0401	836.5
303.15 K, m1 = 0.04995	838.6
303.15 K, m1 = 0.06015	838.4
303.15 K, m1 = 0.08002	836.6
303.15 K, m1 = 0.1224	835.6
303.15 K, m1 = 0.1472	835.12
303.15 K, m1 = 0.1935	832.91
303.15 K, m1 = 0.2925	829.51
308.15 K, m1 = 0.01001	852.1
308.15 K, m1 = 0.02001	847.8
308.15 K, m1 = 0.03002	848.2
308.15 K, m1 = 0.0401	852.3
308.15 K, m1 = 0.04995	853.8
308.15 K, m1 = 0.06015	853.6
308.15 K, m1 = 0.08002	852.2
308.15 K, m1 = 0.1224	851.14
308.15 K, m1 = 0.1472	850.86
308.15 K, m1 = 0.1935	849
308.15 K, m1 = 0.2925	846.24
313.15 K, m1 = 0.01001	866.4
313.15 K, m1 = 0.02001	862
313.15 K, m1 = 0.03002	862.5
313.15 K, m1 = 0.0401	867.6
313.15 K, m1 = 0.04995	868.8
313.15 K, m1 = 0.06015	868.4
313.15 K, m1 = 0.08002	867.4
313.15 K, m1 = 0.1224	866.13
313.15 K, m1 = 0.1472	866.03
313.15 K, m1 = 0.1935	864.46
313.15 K, m1 = 0.2925	862.08
318.15 K, m1 = 0.01001	881.2
318.15 K, m1 = 0.02001	875.7
318.15 K, m1 = 0.03002	875.9
318.15 K, m1 = 0.0401	881.8
318.15 K, m1 = 0.04995	882.5
318.15 K, m1 = 0.06015	882.3
318.15 K, m1 = 0.08002	881.7
318.15 K, m1 = 0.1224	880.23
318.15 K, m1 = 0.1472	880.31
318.15 K, m1 = 0.1935	878.85
318.15 K, m1 = 0.2925	876.99
323.15 K, m1 = 0.01001	893
323.15 K, m1 = 0.02001	888.8
323.15 K, m1 = 0.03002	888.4
323.15 K, m1 = 0.0401	894.9
323.15 K, m1 = 0.04995	895.6
323.15 K, m1 = 0.06015	895.5
323.15 K, m1 = 0.08002	894.7
323.15 K, m1 = 0.1224	893.76
323.15 K, m1 = 0.1472	893.83
323.15 K, m1 = 0.1935	892.3
323.15 K, m1 = 0.2925	890.8
328.15 K, m1 = 0.01001	904.7
328.15 K, m1 = 0.02001	900.1
328.15 K, m1 = 0.03002	900.3
328.15 K, m1 = 0.0401	907.2
328.15 K, m1 = 0.04995	907.7
328.15 K, m1 = 0.06015	907.3
328.15 K, m1 = 0.08002	906.8
328.15 K, m1 = 0.1224	905.99
328.15 K, m1 = 0.1472	906.11
328.15 K, m1 = 0.1935	904.68
328.15 K, m1 = 0.2925	903.37
333.15 K, m1 = 0.01001	915.3
333.15 K, m1 = 0.02001	910.7
333.15 K, m1 = 0.03002	911
333.15 K, m1 = 0.0401	918.1
333.15 K, m1 = 0.04995	918.5
333.15 K, m1 = 0.06015	918
333.15 K, m1 = 0.08002	917.5
333.15 K, m1 = 0.1224	916.74
333.15 K, m1 = 0.1472	917.09
333.15 K, m1 = 0.1935	915.79
333.15 K, m1 = 0.2925	914.65
